Reference: patent publication US5691368A, “Substituted oxazolidine calpain and/or cathepsin B inhibitors” (Hoechst Marion Roussel, Inc., priority 1995, dated 1997)
“And” between values parts separate entries of the source, which are not always exact repeats. Identical values can stand only once. Like-named read-outs stand apart in the source and are kept apart here. One block for each molecule: values may come before it. Where a SMILES comes first, the peptide text is derived from it. The star is where a group is joined. Cbz = O=C(OCc1ccccc1)*

Legend:
calpain [1] = settings: cited from earlier work
rats = settings: cited from earlier work
[2] = system: proteolytic response to post-decapitation ischemia; settings: cited from earlier work
calpain [3] = settings: broken membrane preparations; cited from earlier work
[4] = target: Muscle and erythrocyte calpain; assay: In Vitro Assay of Calpain (fluorometric, t-Boc-Val-Leu-Lys-7-amido-4-methyl-coumarin substrate); format: biochemical; settings: In Vitro Calpain Inhibition
Description: In Vitro Assay of Calpain in the Prescence of Calpain Inhibitors
Muscle and erythrocyte calpain were assayed by a fluorometric procedure using t-Boc-Val-Leu-Lys-7-amido-4-methyl-coumarin as the substrate, Sasaki et al., J. Biol. Chem. 259, 12489-12494 (1984). The enzyme calpain is commercially available and may be purchased from Sigma. The assay buffer, pH, assay techniques and calculation of the inhibitory constant (Ki) are similar to those described by Mehdi et al., Biochem. Biophys. Res. Commun. 157, 1117-1123 (1988).

[5] = system: male spontaneously hypertensive rats; assay: Neuroprotection in vivo, focal cerebral ischemia by permanent tandem occlusion of right middle cerebral artery and right common carotid artery; design: species or system rat (spontaneously hypertensive)
Description: Neuroprotection In Vivo With MDL 104,903 In a Model of Focal Cerebral Ischemia
For example, twelve male spontaneously hypertensive rats were divided into two groups: a vehicle-treated group and a calpain inhibitor-treated groups (MDL 104,903; 4×30 mg/kg cumulative doses). Ischemia was induced by permanent tandem occlusion of the right middle cerebral artery and right common carotid artery. Animals were killed 24 hours after surgery, and quantitative measurements of infarction volumes were performed using standard histological techniques and quantitative image analysis.

[6] = individual animal, inhibitor-treated group, 4×30 mg/kg I.V., 24 hours after surgery, 30 mg/kg

Molecule: CC(C)[C@H](NC(=O)OCc1ccccc1)C(=O)N[C@H](C=O)Cc1ccccc1 [Cbz-Val-Phe-H] (Cbz-Val-Phe-aldehyde)
cell penetration (calpain [1]; inhibitor of calpain): cell-penetrating
Ki for calpain (calpain [1]; intact cell systems): low
reduction of infarction, edema, and calcium-activated proteolysis (rats; intravenous injections, cumulative doses of 30 mg/kg or 60 mg/kg): effective in reducing infarction, edema, and calcium-activated proteolysis
volumes of cerebral infarction (rats; rats, versus saline-treated or vehicle-treated control animals): significantly smaller
proteolytic response to post-decapitation ischemia [2]: reduced
Ki for calpain (calpain [3]): low

Molecule: CCCC(=O)O[C@@H]1OCN(C(=O)[C@@H](NC(=O)OCc2ccccc2)C(C)C)[C@H]1Cc1ccccc1 [MDL 103,821, [4S-[3(R*),4α,5β]]-[1-[[5-butyryloxy)-4-(phenylmethyl)-3-oxazolidinyl]carbonyl]-2-methylpropyl]-carbamic acid, phenylmethyl ester]
Ki [4]: 1300 nM

Molecule: CC(=O)O[C@@H]1OCN(C(=O)[C@@H](NC(=O)OCc2ccccc2)C(C)C)[C@H]1Cc1ccccc1 [MDL 104,860, [4S-[3(R*),4α,5β]]-[1-[[5-(acetyloxy)-4-(phenylmethyl)-3-oxazolidinyl]carbonyl]-2-methylpropyl]carbamic acid, phenylmethyl ester]
Ki [4]: 1450 nM

Molecule: CC(C)[C@@H](C(=O)N1CO[C@@H](O)[C@@H]1Cc1ccccc1)N(C)C(=O)OCc1ccccc1 [MDL 105,423, [4S-[3(R*),4α,5β]]-[1-[[5-hydroxy-4-(phenylmethyl-3-oxazolidinyl]carbonyl]-2-methylpropyl]methyl-carbamic acid, phenylmethyl ester]
Ki [4]: 2100 nM

Molecule: CC(C)[C@H](NC(=O)OCc1ccccc1)C(=O)N1CO[C@@H](OC(=O)N2CCOCC2)[C@@H]1Cc1ccccc1 [MDL 105,803, [4S-[3(R*),4α,5β]]-3-[3-methyl-1-oxo-2-[[(phenylmethoxy)carbonyl]amino]butyl]-4-(phenylmethyl)-5-oxazolidinyl ester, 4-morpholinecarboxylic acid]
Ki [4]: 2000 nM

The next lines start with results.

Ki [4]: 300 nM
Molecule: CCCCC(CC)C(=O)O[C@@H]1OCN(C(=O)[C@@H](NC(=O)OCc2ccccc2)C(C)C)[C@H]1Cc1ccccc1 (stereo partly drawn) [MDL 104,092, [4S-[3(R*),4α,5β]]-[1-[[5-(2-ethylhexanoyl-oxy)-4-(phenylmethyl)-3-oxazolidinyl]carbonyl]-2-methylpropyl]-carbamic acid, phenylmethyl ester]

Ki [4]: 33 nM
Molecule: CC(C)[C@H](NC(=O)OCc1ccccc1)C(=O)N1CO[C@@H](O)[C@@H]1Cc1ccccc1 [MDL 104,903, [4S-[3(R*),4α,5β]]-[1-[[5-hydroxy-4-(phenylmethyl)-3-oxazolidinyl]carbonyl]-2-methylpropyl]-carbamic acid, phenylmethyl ester]
reduction in infarct volume ([5]; 4×30 mg/kg I.V. doses via femoral vein at 2 hour intervals beginning 5 min. after initiation of ischemia, 24 hours after surgery): 20.5%
% of Reduction (Percentage of Infarct Reduction) ([5]; comparison of mean values with vehicle group, 4×30 mg/kg I.V.): 20.24%
Brain Volume ([5]; individual animal, inhibitor-treated group, 4×30 mg/kg I.V. at 2 hour intervals from 5 min after ischemia, 24 hours after surgery, 30 mg/kg): 1307.52 mm^3 and 1309.36 mm^3 and 1257.24 mm^3 and 1313.62 mm^3 and 1333.44 mm^3 and 1326.46 mm^3
Infarct Vol. v. Brain Vol. [5, 6]: 12.61% and 14.14% and 13.59% and 10.07% and 10.93%
Infarct Volume [5, 6]: 164.94 mm^3 and 185.16 mm^3 and 170.84 mm^3 and 178.58 mm^3 and 134.28 mm^3 and 144.92 mm^3
Infarct Vol. v. Brain Vol., mean ([5]; mean of inhibitor-treated group (animals 7-12), 4×30 mg/kg I.V., vehicle mean 15.66): 12.49%
Infarct Volume, mean ([5]; mean of inhibitor-treated group (animals 7-12), 4×30 mg/kg I.V., vehicle mean 205.14): 163.12 mm^3
Brain Volume, mean ([5]; mean of inhibitor-treated group (animals 7-12), 4×30 mg/kg I.V., vehicle mean 1310.15): 1307.94 mm^3

Ki [4]: 1100 nM
Molecule: COc1ccc(CC(=O)O[C@@H]2OCN(C(=O)[C@@H](NC(=O)OCc3ccccc3)C(C)C)[C@H]2Cc2ccccc2)cc1 [MDL 105,236, [4S-[3(R*),4α,5β]]-[1-[[5-(4-methoxyphenyl-acetyloxy)--4-(phenylmethyl)-3-oxazolidinyl]carbonyl]-2-methylpropyl-1]-carbamic acid, phenylmethyl ester]

Ki [4]: 700 nM
Molecule: CCOC(=O)CCC(=O)O[C@@H]1OCN(C(=O)[C@@H](NC(=O)OCc2ccccc2)C(C)C)[C@H]1Cc1ccccc1 [MDL 105,608, [4S-[3(R*),4α,5β]]-[1-[[5-(ethylsuccinyloxy)-4-(phenylmethyl)-3-oxazolidinyl]carbonyl]-2-methylpropyl]-carbamic acid, phenylmethyl ester]

Ki [4]: 1200 nM
Molecule: [4S-[3(R*),4α,5β]]-[1-[[5-(propionyloxy)-4-(phenylmethyl)-3-oxazolidinyl]carbonyl]-2-methylpropyl]-carbamic acid, phenylmethyl ester [MDL 105,387]
